Laboratory results: ChEMBL document CHEMBL1151365, “The isolation and identification of several trichothecene mycotoxins from Fusarium heterosporum” (J Nat Prod, 1981)

What was measured:
Type in all cases: organism-based
[1] = species: Oryctolagus cuniculus; assay: Dermal toxicity in rabbit skin; conditions: in vivo
[2] = tested on: Triticum aestivum; assay: Toxicity in Triticum aestivum assessed as inhibition of coleoptiles growth at 0.01 mM; conditions: in vivo, 10 µM
[3] = tested on: Triticum aestivum; assay: Toxicity in Triticum aestivum assessed as inhibition of coleoptiles growth at 0.1 mM; conditions: in vivo, 100 µM
[4] = tested on: Triticum aestivum; assay: (§1) Toxicity in Triticum aestivum assessed as inhibition of coleoptiles growth at 1 mM; conditions: in vivo, 1000 µM
[5] = as §1; conditions: Triticum aestivum coleoptiles, read-out: Activity

| Structure (SMILES) | ED50 [1] | Activity [2] | Activity [3] | Activity [4] | inhibition at 1000 µM [5] |
| --- | --- | --- | --- | --- | --- |
| CC1=C[C@H]2O[C@@H]3[C@H](O)[C@@H](O)[C@](C)([C@@]2(CO)C[C@@H]1O)[C@]31CO1 | > 1.28 µg | – | – | – | – |
| CC(=O)OC[C@]12C[C@H](OC(=O)CC(C)(C)O)C(C)=C[C@H]1O[C@@H]1[C@H](O)[C@@H](O)[C@@]2(C)[C@]12CO2 | > 1.28 µg | Toxic | Toxic | Toxic | – |
| CC(=O)OC[C@]12C[C@H](O)C(C)=C[C@H]1O[C@@H]1[C@H](O)[C@@H](O)[C@@]2(C)[C@]12CO2 | > 1.28 µg | – | – | – | 59% |
| CC1=C[C@H]2O[C@@H]3[C@H](O)[C@@H](O)[C@](C)([C@@]2(CO)C[C@@H]1OC(=O)CC(C)(C)O)[C@]31CO1 | > 1.28 µg | Toxic | Toxic | Toxic | – |
| CC(=O)OC[C@]12C[C@H](OC(=O)CC(C)C)C(C)=C[C@H]1O[C@@H]1[C@H](O)[C@@H](O)[C@@]2(C)[C@]12CO2 [HT-2 TOXIN] | 0.16 µg | Toxic | Toxic | Toxic | – |
| CC(=O)OC[C@]12C[C@H](OC(=O)CC(C)C)C(C)=C[C@H]1O[C@@H]1[C@H](O)[C@@H](OC(C)=O)[C@@]2(C)[C@]12CO2 [T-2 TOXIN] | < 0.16 µg | Toxic | Toxic | Toxic | – |
